The results in this text go back to patent publication US10550103B2, “Dual inhibitors of PARP1 and CDK” (Accutar Biotechnology, priority 2017, dated 2020).

Data set [1] deals with HCC1395 cells. Description: BRAC1 mutant triple negative breast cancer cell growth inhibition assay (Cell Titer Glo), HCC1395. The data set is classed as cell-based. As to the method: (§1) HCC1937 cells and HCC1395 cells are both […], triple negative (ER, PR, HER2) breast cancer cell lines. The cells were maintained in RPMI1640 medium (Gibco A10491-01) supplemented with 10% FBS, and 1× Penicillin Streptomycin. The HCC1937 cells (ATCC® CRL-2336™) and HCC1395 cells (ATCC® CRL-2324™), respectively, were plated in 96 dark well plates at 0.4×10^4 cells/well.
(§2) Cell medium was replaced each day for 4 days.
(§3) To determine cell viability, the relative cell number was determined by the Cell Titer Glo reagent (Promega) according to the protocol. At each day of the assay, the 96 well plate and reagents were equilibrated at RT for 30 min. 100 μl of Cell Titer Glo reagent was added to each well. The contents of each well were mixed using a pipetter to induce cell lysis. The plate was allowed to incubate at RT for 30 min to stabilize the luminescent signal, and the luminescence was determined by a luminometer (Perkin Elmer EnSpire).
In general terms: Cellular ATP, detected with luciferase, serves as a proxy for viable cell number.

Data set [2] relates to MDA-MB-231 cells. The data set is described as follows: MDA-MB-231 breast cancer cell viability assay. The data set is classed as cell-based, human. The following applies: increasing concentrations; FIG. 15B. The method, then:
(§4) MCF7 is a breast cancer cell line isolated from a person. MDA-MB-231 is a cell line is an epithelial, human breast cancer cell line that was established from a pleural effusion of a person with a metastatic mammary adenocarcinomal. Cell assays were performed using increasing concentrations of C3 and cell viability was measured. Olaparib and palbocicilib were also used in the cell assays to compare the efficacy of C3 in decreasing cell viability of these breast cancer lines.

For data set [3], the system named is MB231 cells. Description: MB231 cell proliferation assay. The following applies: days 1-4; FIG. 8, 9. It counts as cell-based, human. As to the method: A cell proliferation assay was performed with MB231 cells, which is a human breast cancer adenocarcinoma cell line expressing a mutant CDKN2A, treated with C3 or olaparib. Cell proliferation results at increasing concentrations of C3 and olaparib were measured at day 1 (FIG. 8A), day 2 (FIG. 8B), day 3 (FIG. 8C), and day 4 (FIG. 8D).

The target of data set [4] is T1, PARP1 (Homo sapiens, UniProt P09874).
T1 construct: purchased TREVIGEN 4690-096-K
T1 sequence (P09874 whole entry): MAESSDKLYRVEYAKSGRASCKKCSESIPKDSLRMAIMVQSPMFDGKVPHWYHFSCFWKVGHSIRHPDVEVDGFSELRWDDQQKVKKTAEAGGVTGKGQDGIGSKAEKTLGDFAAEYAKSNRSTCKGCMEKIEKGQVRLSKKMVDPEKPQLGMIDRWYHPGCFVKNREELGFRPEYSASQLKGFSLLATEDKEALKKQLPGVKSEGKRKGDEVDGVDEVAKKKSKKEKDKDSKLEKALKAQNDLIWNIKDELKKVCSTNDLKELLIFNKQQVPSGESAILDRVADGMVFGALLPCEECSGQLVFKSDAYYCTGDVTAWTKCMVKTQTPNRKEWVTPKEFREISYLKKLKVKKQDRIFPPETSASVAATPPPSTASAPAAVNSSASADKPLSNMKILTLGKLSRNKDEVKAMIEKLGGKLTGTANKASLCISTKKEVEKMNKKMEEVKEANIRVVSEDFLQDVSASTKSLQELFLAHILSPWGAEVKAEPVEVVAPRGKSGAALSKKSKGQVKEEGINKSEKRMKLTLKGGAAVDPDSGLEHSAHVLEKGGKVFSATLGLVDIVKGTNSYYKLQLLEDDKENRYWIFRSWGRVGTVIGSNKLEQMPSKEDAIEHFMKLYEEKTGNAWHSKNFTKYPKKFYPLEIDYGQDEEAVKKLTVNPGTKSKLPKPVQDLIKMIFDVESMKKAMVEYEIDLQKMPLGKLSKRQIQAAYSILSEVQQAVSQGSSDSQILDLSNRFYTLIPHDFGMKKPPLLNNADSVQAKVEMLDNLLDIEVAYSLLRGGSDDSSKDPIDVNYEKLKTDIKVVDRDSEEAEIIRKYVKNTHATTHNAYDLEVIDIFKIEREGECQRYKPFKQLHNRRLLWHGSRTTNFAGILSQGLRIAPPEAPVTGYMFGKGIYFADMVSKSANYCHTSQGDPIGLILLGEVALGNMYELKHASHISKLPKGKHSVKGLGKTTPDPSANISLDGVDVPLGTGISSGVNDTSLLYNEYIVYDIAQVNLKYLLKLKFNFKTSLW
The data set is described as follows: PARP inhibition assay (TREVIGEN kit, NAD fluorescence). The following applies: final PARP concentration 40 nM; inhibition curves FIG. 2A-2D. It counts as biochemical. As to the method:
The PARP inhibition assay was performed using a commercially available PARP inhibition assay kit (TREVIGEN, 4690-096-K).
A 1× buffer was prepared by diluting 10× buffer with dH2O.
The nicotinamide adenine dinucleotide (NAD) standards were prepared by diluting the NAD stock solution with the 1× buffer as provided in Table 2 below.
PARP1 inhibitors were prepared in 1× buffer at 50× final concentration. 1 μl of PARP inhibitors were added to the 96 well plate.
PARPminus (×20) and PARPplus (×40) solutions were prepared as provided below in Table 3.
The cycling mix(60×) was prepared as provided below in Table 4.
In the black 96 well plate provided with the kit, 25 μl of 1× buffer was added to wells A5 and A6. To wells B5 to G6, 25 μl of 2×NAD standards were added. To wells H1, H2, A7 to G12, 25 μl NAD2 μM were added. To wells A5 to H6, 1 μl DMSO were added.
The following stock solutions of olaparib and C3 were separately prepared: 500 nM, 2.5 μM, 5 μM, 25 μM, 50 μM, 0.5 mM, and 1 mM. […]
The 96 well plate was read with a fluorescent plate reader (544 nm excitation/590 nm emission filters). […]
The standards indicate that higher concentrations of NAD correspond to higher fluorescence. Because PARP1 consumes NAD, PARP1 inhibition was determined by fluorescence intensity.
Inhibition curves were prepared based on the fluorescence data. […]

The nature of data set [5]: Pharmacokinetics in female BALB/c mice. The data set is classed as in vivo. The settings on record: plasma; for MRT last: read-out: MRT(0-t). The method, then:
Pharmacokinetic parameters of the of C3 were measured after a single intraperitoneal injection (IP) of 10 mg/kg, or oral administration (PO) of 50 mg/kg in female BALB/c mice. Pharmacokinetic parameters measured include: elimination half-life (t1/2), time to reach maximum blood plasma concentration (Tmax); maximum blood plasma concentration (Cmax); area under the blood plasma concentration-time curve from time zero to the last detectable plasma concentration (AUC(0-t)); area under the blood plasma concentration-time curve from time zero to infinity (AUC(0-∞)); the mean residence time of the drug in the body from time zero to the last detectable plasma concentration (MRT(0-t)); apparent volume of distribution during terminal phase (Vz); and apparent total body clearance of the drug from plasma (CL).

Data set [6] relates to MCF7 cells. The data set is described as follows: MCF7 breast cancer cell viability assay. The data set is classed as cell-based, human. The settings on record: FIG. 15A. The method, then:
as §4

Data set [7] concerns HCC1937 cells. Description: BRAC1 mutant triple negative breast cancer cell growth inhibition assay (Cell Titer Glo), HCC1937. The data set is classed as cell-based. As to the method: as §1, §2, §3
Data set [8] concerns more than 480 kinase assays (403 non-mutant kinases). Description: Kinase selectivity, DiscoverX KINOMEscan competition binding. As to the method:
A kinase selectivity assay was performed with C3 using DiscoverX KINOMEscan™ (www.discoverx.com/, which is herein incorporated by reference in its entirety for all purposes). The KINOMEscan platform employs active site-directed competition binding assay to quantitatively measure interactions between test compounds (e.g., C3) and more than 480 kinase assays including clinically relevant mutants, lipid, atypical, and pathogen kinases, plus a growing panel of activation-state specific assays.
The data was interpreted using three selectivity score types (e.g., S(35); S(10); and S(1)) in order to provide a broad kinase selectivity picture (e.g., a selectivity score) of C3. The selectivity score was calculated using % Ctrl as a potency threshold (below) and provides a quantitative method of describing compound selectivity to facilitate comparison of different compounds. The three selectivity score types used to interpret the data are summarized below: S=Number of hits/Number of assays S(35)=(number of non-mutant kinases with % Ctrl<35)/(number of non-mutant kinases tested) S(10)=(number of non-mutant kinases with % Ctrl<10)/(number of non-mutant kinases tested) S(1)=(number of non-mutant kinases with % Ctrl<1)/(number of non-mutant kinases tested)

The nature of data set [9]: MCF/E2 xenograft tumor mouse model, body weight. The data set is classed as in vivo. The following applies: 50 mg/kg P.O. QD for 2 weeks; FIG. 14B. The method, then:
(§5) A MCF/E2 xenograft tumor mouse model was used to evaluate the efficacy of C3 in the treatment of breast cancer. 50 mg/kg of C3 was administered, P.O., once daily (QD) for 2 weeks. Data was compared to a vehicle control.

Data set [10] deals with MCF/E2 xenograft tumor. Description: MCF/E2 xenograft tumor mouse model, tumor volume. The data set is classed as in vivo. The following applies: 50 mg/kg P.O. QD for 2 weeks; FIG. 14A. As to the method:
as §5

Data set [11] concerns MCF7 cells. Description: MCF7 cell proliferation assay. The settings on record: days 1-4; FIG. 6, 7. The data set is classed as cell-based, human. As to the method: A cell proliferation assay was performed with MCF7 cells, which is a human breast cancer adenocarcima cell line which expresses PARP1, to compare the inhibitor effect of C2 (Abemaciclib), C2 in combination with letrozole (1 μM), C3, and C3 in combination with letrozole (1 μM). Cell proliferation results at increasing concentrations of C2 and C3 were measured at day 1 (FIG. 6A), day 2 (FIG. 6B), day 3 (FIG. 6C), and day 4 (FIG. 6D).

The mark [12] stands for this setting: % Ctrl<1, 403 non-mutant kinases, screening concentration 1000 nM.
Where [13] appears, read: % Ctrl<10, 403 non-mutant kinases, screening concentration 1000 nM.
Setting [14] is: % Ctrl<35, 403 non-mutant kinases, screening concentration 1000 nM.

Where two headings read alike, the source gives them in different places.

The AUC(0-t) is the area under the concentration-time curve up to a stated or last time point. Low values mean less exposure, high ones more exposure. One may read the Cmax as the highest concentration seen after dosing. One may read the Tmax as the time at which the peak concentration occurs. As a reminder, the AUC(0-inf) is total exposure, with the tail of the curve extrapolated. Read a high AUC(0-inf) as high exposure. In general, half-life refers to the time in which the quantity being followed falls by half. A high value points to slow decline. `Cc1nc2c(F)cc(-c3nc(Nc4ccc(N5CCN(C(=O)c6cc(Cc7n[nH]c(=O)c8ccccc78)ccc6F)CC5)cn4)ncc3F)cc2n1C(C)C` [Compound C3]: the “viable HCC1395 cells” value in data set [1] (10 μM, day 4, FIG. 10D) was “almost no HCC1395 cells were viable”. In addition, the “reduction of MDA-MB-231 cell viability (comparison in words)” value in data set [2] was “more effective in reducing cell viability of MDA-NIB-231 cell than olaparib and palbocicilib”. For the same compound, the “inhibition of MB231 cell proliferation” value in data set [3] is “stronger inhibitor of cell proliferation of MB231 human breast cancer adenocarcinoma cells than olaparib”. Besides, in data set [4], the “PARP1 inhibition (comparison in words)” value was “superior to C2 (Abemaciclib) and similar to olaparib”. Further, in [5] (mouse, PO 50 mg/kg), the area under the curve AUC(0-t) is 1700 ng·h/mL, the Cmax turned out to be 292 ng/mL, the Tmax came out at 4 h and the MRT last worked out at 3.62 h. In addition, in data set [5] (mouse, single IP 10 mg/kg), the AUC(0-inf) came to 2670 ng·h/mL, the AUC(0-t) was determined as 2520 ng·h/mL, the maximum concentration (Cmax) was 284 ng/mL and the Tmax worked out at 0.25 h. Also, in data set [5] (mouse, single IP 10 mg/kg), the half-life was 5.7 h and the MRT last is 6.3 h. In addition, in data set [5] (single IP 10 mg/kg), the CL is 62.3432 mL/min/kg and the Vz worked out at 30.75832 L/kg. Also, the “reduction of MCF7 cell viability (comparison in words)” value in data set [6] (increasing concentrations) is “reduced cell viability of MCF7 cells at lower concentrations compared to both olaparib and palbocicilib”. The “viable HCC1937 cells” value in [7] (10 μM, day 4, FIG. 11D) is given as “almost no HCC1937 cells were viable”. Also, in [8] (setting [12]), the “Number of Hits, S(1)” value was 11 and the “Selectivity Score S(1)” value is 0.027. Besides, in data set [8] (setting [13]), the “Number of Hits, S(10)” value turned out to be 50 and the “Selectivity Score S(10)” value came out at 0.124. Further, in [8] (setting [14]), the “Number of Hits, S(35)” value is 86 and the “Selectivity Score S(35)” value came to 0.213. Besides, the “kinase selectivity (in words)” value in data set [8] (KINOMEscan, 1000 nM) is listed as “relatively selective kinase, with similar kinase selectivity as Abemaciclib”. In addition, in [9], the “change in body weight versus vehicle control” value is “does not causes changes in body weight”. Moreover, the “change in tumor volume versus vehicle control” value in [10] was “able to limit tumor growth compared to the vehicle control”. Moreover, the “inhibition of MCF7 cell proliferation” value in data set [11] is listed as “inhibitor of cell proliferation”.
Turning to `O=C(c1cc(Cc2n[nH]c(=O)c3ccccc23)ccc1F)N1CCN(C(=O)C2CC2)CC1` [olaparib, reference compound], the viability at 10 µM in data set [1] (Homo sapiens, HCC1395, 96 h, day 4, FIG. 10D, read-out: viable HCC1395 cells) was roughly 60%; in data set [7] (Homo sapiens, HCC1937, 96 h, day 4, FIG. 11D, read-out: viable HCC1937 cells) it was greater than 80%. Moreover, the “concentration at which MCF7 cell viability was reduced to 0” value in data set [6] is given as “did not reduce cell viability to 0% at the concentrations tested”.
